In the supplement of paper PMC11127212:

Columns and labels:
[1] = collision cross section (TWIMS, N2) of ion [M-H]-; higher = larger gas-phase ion cross section; settings: ionization: ESI negative; LC: HILIC, pH 9.0 ammonium acetate
Procedure: (§1)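 Reference standards (20-100 uM) were separated by HILIC UPLC (BEH HILIC, 45 °C): acidic pH 3.0 ammonium formate/formic acid for ESI+ and basic pH 9.0 ammonium acetate/ammonia for ESI-. They were analysed on a Synapt G2-Si traveling-wave IMS-QTOF with nitrogen drift gas (WH 30 V; WV 800 m/s in ESI+ and 1000 m/s in ESI-).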

[2] = retention time on BEH HILIC column (20 min gradient, 0.4 mL/min); higher = later elution; settings: LC: HILIC
Procedure: as §1

[3] = collision cross section (TWIMS, N2) of ion [M+H]+; higher = larger gas-phase ion cross section; settings: ionization: ESI positive; LC: HILIC, pH 3.0 ammonium formate
Procedure: as §1

[4] = ionization: ESI negative, pH 9.0 ammonium acetate
[5] = ionization: ESI positive, pH 3.0 ammonium formate

Structure (SMILES)	collision cross section [1] [Å²]	retention time on BEH HILIC column [2, 4] [min]	retention time on BEH HILIC column [2, 5] [min]	collision cross section [3] [Å²]
N[C@@H](CCC(=O)N[C@@H](CSSC[C@H](NC(=O)CC[C@H](N)C(=O)O)C(=O)NCC(=O)O)C(=O)NCC(=O)O)C(=O)O [Oxidized glutathione]	216.04	12.5	12.6	226.92
CCCCCCCCC(=O)OC [Methyl nonanoate]	144.8	1.03	1.03	148.93
NC(=O)NCCC[C@H](N)C(=O)O [Citrulline]	135.18	9.07	8.89	137.33
Cc1cc2nc3c(=O)[nH]c(=O)nc-3n(C[C@H](O)[C@H](O)[C@H](O)COP(=O)(O)OP(=O)(O)OC[C@H]3O[C@@H](n4cnc5c(N)ncnc54)[C@H](O)[C@@H]3O)c2cc1C [FAD]	243.71	10.6	10.5	250.07
CCC(C)CCC(=O)O (stereo unspecified) [4-methylhexanoic acid]	134.11	0.88	0.99	137.57
CC(=O)SCCNC(=O)CCNC(=O)[C@H](O)C(C)(C)COP(=O)(O)OP(=O)(O)OC[C@H]1O[C@@H](n2cnc3c(N)ncnc32)[C@H](O)[C@@H]1OP(=O)(O)O [Acetyl-CoA]	256.25	11.8	12	248.16
CCCCC/C=C\C/C=C\C/C=C\C/C=C\CCCC(=O)O [Arachidonic acid]	186.98	0.72	0.77	178.98
NCCC[C@H](N)C(=O)O [Ornithine]	129.53	11.2	11.1	129.31
CC(C)[C@H](N)C(=O)O [L-valine]	126.43	6.85	6.79	123.49
CC/C=C\C/C=C\C/C=C\C/C=C\C/C=C\CCCC(=O)O [Eicosapentaenoic acid]	190.11	0.72	0.75	177.23
O=C(O)c1cc(O)c2cccc(O)c2n1 [Xanthurenic acid]	136.52	4.65	4.47	136.81
Nc1ncnc2c1ncn2[C@@H]1O[C@@H]2COP(=O)(O)O[C@H]2[C@H]1O [cAMP]	171.56	6.8	6.85	174.12
N[C@@H](CSSC[C@H](N)C(=O)O)C(=O)O [L-cystine]	143.16	12	11.4	146.43
Nc1ncnc2c1ncn2[C@@H]1O[C@H](CO)[C@@H](O)[C@H]1O [Adenosine]	155.95	2.36	2.24	155.89
C=C1CC[C@H](O)C/C1=C/C=C1\CCC[C@]2(C)[C@@H]([C@H](C)CCCC(C)C)CC[C@@H]12 [Vitamin D3]	201.16	17.5	0.73	206.18
NCCCC[C@H](N)C(=O)O [L-lysine]	135.63	11.6	11.3	131.69
N[C@@H](CCC(=O)N[C@@H](CS)C(=O)NCC(=O)O)C(=O)O [Glutathione]	166.5	9.37	9.46	166.01
N[C@@H](Cc1c[nH]c2ccccc12)C(=O)O [L-tryptophan]	148.33	5.86	5.77	147.76
Oc1ncnc2nc[nH]c12 [Hypoxanthine]	121.62	2.31	2.28	125.05
Cc1cc2nc3c(=O)[nH]c(=O)nc-3n(C[C@H](O)[C@H](O)[C@H](O)CO)c2cc1C [Riboflavin]	184.43	3.11	5.57	182.66
N[C@@H](Cc1ccccc1)C(=O)O [L-phenylalanine]	138.51	6.02	5.92	137.14
N[C@@H](CCSC[C@H](N)C(=O)O)C(=O)O [L-cystathionine]	142.48	11.2	11.3	144
O=c1[nH]c(=O)c2[nH]c(=O)[nH]c2[nH]1 [Uric acid]	125.59	5.34	3.02	133.36
O=C1O[C@H]([C@@H](O)CO)C(O)=C1O [Ascorbic acid]	122.95	1.17	0.72	134.39

Structure (SMILES)	collision cross section [1] [Å²]	retention time on BEH HILIC column [2, 4] [min]	retention time on BEH HILIC column [2, 5] [min]	collision cross section [3] [Å²]
CCCCCCC(=O)OC [Methyl heptanoate]	137.2	1.13	0.84	137.86
NCCCCNCCCN [Spermidine]			12.7	135.15
NCCc1ccc(O)c(O)c1 [Dopamine]	130.85	4.35	4.6	139.55
Nc1c(C(=O)O)c2nc3c(C(=O)O)cccc3oc-2cc1=O [Cinnavalininate]	156.31	2.92	2.66	156.61
Nc1ccccc1C(=O)O [2-aminobenzoic acid]	126.13	0.97	0.82	124.05
O=C(O)CCCC[C@@H]1SC[C@@H]2NC(=O)N[C@@H]21 [Biotin]	153.03	1.78	1.88	148.62
C[N+](C)(C)C[C@H](O)CC(=O)O [L-carnitine]			8.64	137.38
O=P(O)(O)OC[C@H]1O[C@@](O)(CO)[C@@H](O)[C@H](O)[C@@H]1O [D-sedoheptulose 7-phosphate]	150.55	9.82		
NCCc1c[nH]c2ccc(O)cc12 [Serotonin]	137.88	3.73		
NCCS(=O)(=O)O [Taurine]	119.39	6.14	6	126.38
N=C(N)NCCC[C@H](N)C(=O)O [L-arginine]	136.62	11.1	10.8	136.63
CC(C)C(=O)O [Isobutyric acid]	118.84	3.29		
O=C(O)C(O)CCO (stereo unspecified) [2,4-dihydroxybutyric acid]	119.85	4.91		
N[C@@H](CCC(=O)O)C(=O)O [L-glutamic acid]	125.39	8.21		
NC(=O)c1cccnc1 [Niacinamide]			1.21	123.01
C[C@@H](O)[C@H](N)C(=O)O [L-threonine]	121.54	7.5		
CCCCCCCC(=O)O [Caprylic acid]	141.36	0.77		
CC[C@H](N)C(=O)O [2-aminobutyric acid]	121.74	7.05		
O=C(O)[C@H]1O[C@H](OP(=O)(O)OP(=O)(O)OC[C@H]2O[C@@H](n3ccc(=O)[nH]c3=O)[C@H](O)[C@@H]2O)[C@H](O)[C@@H](O)[C@@H]1O [UDPGA]	209.99	10.4		
NCCCNCCCCNCCCN [Spermine]			13.9	150.86
C[C@H](N)C(=O)O [L-alanine]	117.06	7.42		
C[C@@H](CC(=O)O)C(=O)O [Methylsuccinic acid]	121.94	1.28		
O=C(O)CCC(=O)C(=O)O [a-ketoglutaric acid]	122.3	5.51		
